ChEMBL document CHEMBL1129930, “Analogues of methotrexate in rheumatoid arthritis. 2. Effects of 5-deazaaminopterin, 5,10-dideazaaminopterin, and analogues on type II collagen-induced arthritis in mice” (J Med Chem, 1997)

What was measured:
[1] = test system: Mus musculus; assay: Incidence of disease (mouse type II collagen) was scored as the percentage of animals within each experimental group that exhibited joint or limb inflammation on day 37 at intraperitoneal dose of 12 mg/kg; type: functional
[2] = test system: Mus musculus; assay: Incidence of disease (mouse type II collagen) was scored as the percentage of animals within each experimental group that exhibited joint or limb inflammation on day 23 at intraperitoneal dose of 12 mg/kg; type: functional
[3] = test system: Mus musculus; assay: Incidence of disease (mouse type II collagen) was scored as the percentage of animals within each experimental group that exhibited joint or limb inflammation on day 23 at intraperitoneal dose of 6 mg/kg; type: functional
[4] = test system: Mus musculus; assay: Incidence of disease (mouse type II collagen) was scored as the percentage of animals within each experimental group that exhibited joint or limb inflammation on day 44 at intraperitoneal dose of 12 mg/kg; type: functional
[5] = test system: Mus musculus; assay: Incidence of disease (mouse type II collagen) was scored as the percentage of animals within each experimental group that exhibited joint or limb inflammation on day 44 at intraperitoneal dose of 6 mg/kg; type: functional
[6] = test system: Mus musculus; assay: Incidence of disease (mouse type II collagen) was scored as the percentage of animals within each experimental group that exhibited joint or limb inflammation on day 30 at intraperitoneal dose of 12 mg/kg; type: functional
[7] = test system: Mus musculus; assay: Incidence of disease (mouse type II collagen) was scored as the percentage of animals within each experimental group that exhibited joint or limb inflammation on day 30 at intraperitoneal dose of 6 mg/kg; type: functional
[8] = test system: Mus musculus; assay: Incidence of disease (mouse type II collagen) was scored as the percentage of animals within each experimental group that exhibited joint or limb inflammation on day 37 at intraperitoneal dose of 6 mg/kg; type: functional
[9] = test system: Mus musculus; assay: Tested for antiinflammatory activity on mouse type II collagen arthritis as Paw swelling of all animals in each group on day 30 at intraperitoneal dose of 12 mg/kg; type: functional
[10] = test system: Mus musculus; assay: Tested for antiinflammatory activity on mouse type II collagen arthritis as Paw swelling of all animals in each group on day 30 at intraperitoneal dose of 6 mg/kg; type: functional
[11] = test system: Mus musculus; assay: Tested for antiinflammatory activity on mouse type II collagen arthritis as Paw swelling of all animals in each group on day 23 at intraperitoneal dose of 12 mg/kg; type: functional
[12] = test system: Mus musculus; assay: Tested for antiinflammatory activity on mouse type II collagen arthritis as Paw swelling of all animals in each group on day 23 at intraperitoneal dose of 6 mg/kg; type: functional
[13] = test system: Mus musculus; assay: Tested for antiinflammatory activity on mouse type II collagen arthritis as Paw swelling of all animals in each group on day 44 at intraperitoneal dose of 12 mg/kg; type: functional
[14] = test system: Mus musculus; assay: Tested for antiinflammatory activity on mouse type II collagen arthritis as Paw swelling of all animals in each group on day 37 at intraperitoneal dose of 6 mg/kg; type: functional
[15] = test system: Mus musculus; assay: Tested for antiinflammatory activity on mouse type II collagen arthritis as Paw swelling of all animals in each group on day 37 at intraperitoneal dose of 12 mg/kg; type: functional
[16] = test system: Mus musculus; assay: Tested for antiinflammatory activity on mouse type II collagen arthritis as Paw swelling of all animals in each group on day 44 at intraperitoneal dose of 6 mg/kg; type: functional
[17] = Concentration required to inhibit the growth of chang liver cells.; type: functional; settings: Homo sapiens
[18] = test system: L1210; assay: Concentration required to inhibit the growth of L1210 cells.; type: functional, cell-based; settings: Mus musculus
[19] = test system: Mus musculus; assay: Incidence of disease (mouse type II collagen) was scored as the percentage of animals within each experimental group that exhibited joint or limb inflammation on day 30 at intraperitoneal dose of 9 mg/kg; type: functional
[20] = test system: Mus musculus; assay: Incidence of disease (mouse type II collagen) was scored as the percentage of animals within each experimental group that exhibited joint or limb inflammation on day 23 at intraperitoneal dose of 9 mg/kg; type: functional
[21] = test system: Mus musculus; assay: Incidence of disease (mouse type II collagen) was scored as the percentage of animals within each experimental group that exhibited joint or limb inflammation on day 37 at intraperitoneal dose of 9 mg/kg; type: functional
[22] = test system: Mus musculus; assay: Incidence of disease (mouse type II collagen) was scored as the percentage of animals within each experimental group that exhibited joint or limb inflammation on day 44 at intraperitoneal dose of 9 mg/kg; type: functional
[23] = test system: Mus musculus; assay: Tested for antiinflammatory activity on mouse type II collagen arthritis as Paw swelling of all animals in each group on day 44 at intraperitoneal dose of 9 mg/kg; type: functional
[24] = test system: Mus musculus; assay: Tested for antiinflammatory activity on mouse type II collagen arthritis as Paw swelling of all animals in each group on day 23 at intraperitoneal dose of 9 mg/kg; type: functional
[25] = test system: Mus musculus; assay: Tested for antiinflammatory activity on mouse type II collagen arthritis as Paw swelling of all animals in each group on day 30 at intraperitoneal dose of 9 mg/kg; type: functional
[26] = test system: Mus musculus; assay: Tested for antiinflammatory activity on mouse type II collagen arthritis as Paw swelling of all animals in each group on day 37 at intraperitoneal dose of 9 mg/kg; type: functional
[27] = test system: Mus musculus; assay: Incidence of disease (mouse type II collagen) was scored as the percentage of animals within each experimental group that exhibited joint or limb inflammation on day 37 at intraperitoneal dose of 3 mg/kg; type: functional
[28] = test system: Mus musculus; assay: Incidence of disease (mouse type II collagen) was scored as the percentage of animals within each experimental group that exhibited joint or limb inflammation on day 23 at intraperitoneal dose of 3 mg/kg; type: functional
[29] = test system: Mus musculus; assay: Incidence of disease (mouse type II collagen) was scored as the percentage of animals within each experimental group that exhibited joint or limb inflammation on day 44 at intraperitoneal dose of 3 mg/kg; type: functional
[30] = test system: Mus musculus; assay: Incidence of disease (mouse type II collagen) was scored as the percentage of animals within each experimental group that exhibited joint or limb inflammation on day 30 at intraperitoneal dose of 3 mg/kg; type: functional
[31] = test system: Mus musculus; assay: Tested for antiinflammatory activity on mouse type II collagen arthritis as Paw swelling of all animals in each group on day 30 at intraperitoneal dose of 3 mg/kg; type: functional
[32] = test system: Mus musculus; assay: Tested for antiinflammatory activity on mouse type II collagen arthritis as Paw swelling of all animals in each group on day 23 at intraperitoneal dose of 3 mg/kg; type: functional
[33] = test system: Mus musculus; assay: Tested for antiinflammatory activity on mouse type II collagen arthritis as Paw swelling of all animals in each group on day 44 at intraperitoneal dose of 3 mg/kg; type: functional
[34] = test system: Mus musculus; assay: Tested for antiinflammatory activity on mouse type II collagen arthritis as Paw swelling of all animals in each group on day 37 at intraperitoneal dose of 3 mg/kg; type: functional

IC50 [18]	SMILES	Animals [1]	Animals [2]	Animals [3]	Animals [4]	Animals [5]	Animals [6]	Animals [7]	Animals [8]	Paw swelling [9]	Paw swelling [10]	Paw swelling [11]	Paw swelling [12]	Paw swelling [13]	Paw swelling [14]	Paw swelling [15]	Paw swelling [16]	IC50 [17]	further results
	Nc1nc(N)c2cc(CCc3ccc(C(=O)NC(CCC(=O)O)C(=O)O)cn3)cnc2n1 (configuration not stated)	88%	0%	0%	88%	88%	62%	88%	88%	2.28 mm	2.39 mm	2.1 mm	2.12 mm	2.67 mm	2.61 mm	2.5 mm	2.86 mm		
25 nM	Cc1c(CNc2ccc(C(=O)NC(CCC(=O)O)C(=O)O)s2)cnc2nc(N)nc(N)c12 (configuration not stated)			12%		12%		12%	12%		2.12 mm		2.17 mm		2.13 mm			34 nM	Animals [19]: 0%; Animals [20]: 0%; Animals [21]: 0%; Animals [22]: 25%; Paw swelling [23]: 2.19 mm; Paw swelling [24]: 2.09 mm; Paw swelling [25]: 2.09 mm; Paw swelling [26]: 2.11 mm
379 nM	Cc1c(CCc2ccc(C(=O)NC(CCC(=O)O)C(=O)O)cc2)cnc2nc(N)nc(N)c12 (configuration not stated)	88%	50%	38%	100%	100%	75%	100%	100%	2.71 mm	2.77 mm	2.32 mm	2.3 mm	2.85 mm	2.81 mm	3.01 mm	2.97 mm	334 nM	Animals [27]: 100%; Animals [28]: 25%; Animals [29]: 100%; Animals [30]: 100%; Paw swelling [31]: 2.73 mm; Paw swelling [32]: 2.21 mm; Paw swelling [33]: 3.12 mm; Paw swelling [34]: 3.09 mm
629 nM	Cc1c(CCc2ccc(C(=O)NC(CCC(=O)O)C(=O)O)cn2)cnc2nc(N)nc(N)c12 (configuration not stated)	62%	0%	0%	75%	75%	38%	25%	38%	2.33 mm	2.22 mm	2.16 mm	2.16 mm	2.66 mm	2.59 mm	2.69 mm	2.55 mm	4110 nM	
